# From PubChem BioAssay AID1963838 (Molecular Pharmacology Branch, DTP, NCI, 2024)
# Where “and” joins values, the source holds several entries; their conditions need not be identical. Identical values can stand only once.
# Tested on: 855422-203-R-J1-PDC complex spheroid viability
# Test: Anticancer human tumor 855422-203-R-J1-PDC patient-derived bladder carcinoma cell line growth inhibition [POLQ]
# Conditions: for viability, T/C: stronger effect = lower value; for IC50: curve of compound
# Method in brief: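 Growth inhibition in 3D: complex spheroids (tumor PDC, HUVEC, MSC) treated with POLQ inhibitor combinations; where Cmax unknown, highest tested concentration 10 microM, except SN-38 at 1 microM.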
# 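Also: spheroids exposed to compounds for seven days before readout.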
SMILES,"viability, T/C (compound 0.0316 µM)","viability, T/C (compound 0.1 µM)","viability, T/C (compound 0.316 µM)","viability, T/C (compound 1 µM)","viability, T/C (compound 3.16 µM)","viability, T/C (compound 10 µM)",IC50,"viability, T/C (compound 0.00316 µM)","viability, T/C (compound 0.01 µM)"
CC(C)n1c(=O)n(C)c2cnc3cc(F)c(-c4ccc(OCCCN5CCCCC5)nc4)cc3c21,100% and 106% and 98.1%,96.9% and 119% and 91.5%,103% and 111% and 98.1%,97.5% and 101% and 93%,83.8% and 95.1% and 86.4%,56.6% and 97.9% and 74.8%,> 10000 nM,–,–
CC1COCCN1c1cc(C2(O)CC3CCC(C2)O3)c2cnn(-c3ccn[nH]3)c2n1 (configuration not stated),98.5% and 101% and 111%,49.5% and 43.5% and 74.9%,15.2% and 14.2% and 20.3%,10.6% and 9.31% and 13.1%,6.4% and 7.44% and 9.6%,3.63% and 5.73% and 6.18%,98.2 nM and 87.6 nM and 170 nM,–,–
COc1cccc2c1C(=O)c1c(O)c3c(c(O)c1C2=O)CC(O)(C(=O)CO)CC3OC1CC(N)C(O)C(C)O1 (configuration not stated),20.9% and 28.2% and 13.1%,9.22% and 14.2% and 10.2%,3.11% and 2.95% and 2.47%,0.45% and 0.73% and 0.38%,0.69% and 0.96% and 0.43%,3.06% and 2.86% and 1.27%,< 31.6 nM,–,–
COc1cccc(OCCCN)c1-c1cc(Nc2cnc(C#N)cn2)n[nH]1,12.2% and 23.8% and 37.9%,9.96% and 13.6% and 17.5%,5.57% and 7.75% and 6.55%,4.87% and 6.23% and 5.82%,–,–,17.7 nM and 23 nM and 26.6 nM,108% and 98.1% and 104%,86.8% and 138% and 132%
CC1COCCN1c1cc(C2(S(C)(=N)=O)CC2)nc(-c2ccnc3[nH]ccc23)n1 (configuration not stated),97.2% and 103% and 97.7%,101% (2×) and 94.1%,109% and 115% and 116%,97.7% and 154% and 117%,37.8% and 46% and 35.8%,9.87% and 13% and 14.6%,2500 nM and 2960 nM and 2520 nM,–,–
CCc1c2c(nc3ccc(O)cc13)-c1cc3c(c(=O)n1C2)COC(=O)[C@]3(O)CC,6.94% and 13.9% and 6.52%,5.24% and 8.86% and 5.52%,3.34% and 4.22% (2×),1.24% and 3.11% and 2.06%,–,–,3.29 nM and 7.7 nM and < 3.16 nM,51.3% and 111% and 38.4%,12.8% and 30.6% and 13.8%
